Tests used:
[1] = tested on: ARR6 promoter; experiment: Arabidopsis mesophyll protoplast transient expression assay, ARR6-LUC reporter; type: cell-based; settings: for activity of ARR6-LUC (hormone specificity): 100 nM t-zeatin, 1 μM IAA or 100 μM ABA, 3 hours of incubation; for induction of the reporter gene ARR6-LUC by cytokinin analogues: 100 nM, FIG. 1C; for activation of ARR6-LUC by over-expressed effector: absence of exogenous cytokinin
Procedure: To elucidate the regulatory circuitry in cytokinin signal transduction, a leaf cell assay based on cytokinin inducible transcription in Arabidopsis mesophyll protoplasts was developed. The 2.4 kb promoter of an Arabidopsis cytokinin primary response gene (SEQ ID NO.: 1), encoding the response regulator 6 (ARR6), was fused to the firefly luciferase (LUC) reporter. In FIG. 1A, transfected protoplasts were incubated with or without 100 nM t-zeatin, 1 μM indole-3-acetic acid (IAA), or 100 μM ABA. After 3 hours of incubation, LUC and GUS activities were determined.
(§1) Arabidopsis Bensheim (BE) protoplasts were isolated and transfected as described with some modifications (Kovtun et al., Proc. Natl. Acad. Sci. USA 97: 2940-5 2000). […] For instance, in the experiments shown in FIG. 1A, protoplasts (4×10^4) were transfected with 2 μg of UBQ10-GUS (internal control) and 20 μg of ARR6-LUC, GH3-LUC, or RD29ALUC plasmid DNA. Transfected protoplasts were incubated at 1×10^4 per mil with/without 1-100 nM of t-zeatin for 3-6 hours under the light at 23° C. The UBQ10-GUS construct was used as an internal control to normalize the variations of each transfection in cell numbers, transformation efficiency and cell viability. […] GFP fluorescence was observed by either Nikon TE200 fluorescent microscopy or Leica TCSNT confocal microscopy.

[2] = tested on: RD29A promoter; experiment: Arabidopsis mesophyll protoplast transient expression assay, RD29A-LUC reporter; type: cell-based; settings: 100 μM ABA, 3 hours
[3] = tested on: GH3 promoter; experiment: Arabidopsis mesophyll protoplast transient expression assay, GH3-LUC reporter; type: cell-based; settings: 1 μM IAA, 3 hours
[4] = tested on: Arabidopsis seedlings; experiment: Seedling cytokinin response assay; type: in vivo; settings: medium with 0.15 mg/L IAA alone or with 0.15 mg/L IAA and 5 mg/L 2IP, 14 days
Source text: In tissue culture, induction of cell proliferation and subsequent shoot formation require cytokinin. To determine whether the same cytokinin signalling pathway is responsible for transcription regulation, cell proliferation, shoot meristem initiation, and leaf formation, we developed a seedling cytokinin response assay. In FIGS. 4A and 4B, Arabidopsis seedlings were transformed with Agrobacteria carrying GFP, CKI1, CKI1 (H405Q), ARR2, and ARR6 constructs in the mini-binary vector pCB302 (Xiang et al., Plant Mol. Biol. 40: 711-7, 1999). Seedlings transformed with the Agrobacteria carrying the binary vector pCB301 […] a Bar selection marker were used as a transformation control (vector). The transformed seedlings were selected with glufosinate ammonium (10 μg/ml) and maintained on medium with auxin (IAA) only (FIG. 4A, +IAA, −2IP) or with auxin and cytokinin (FIG. 4B, +IAA, +2IP) for 14 days. The transformed tissues were mostly derived from the shoot apical meristem. […] Both CKI1 and ARR2 promoted extensive cell proliferation and shoot formation even without exogenous cytokinin. The experiments were repeated three times with similar results. […] The results of this cytokinin seedling assay are consistent with those from protoplast transient expression analyses based on transcription. […]

[5] = tested on: AHP1-GFP; settings: 100 nM t-zeatin, 30 minutes
Procedure: (§2) To gain further in vivo support for the involvement of AHPs in cytokinin signalling, the action of AHP1-GFP in transfected protoplast in the absence or presence of cytokinin was followed using fluorescence microscopy. Specifically, protoplasts were transfected with AHP1-GFP, AHP2-GFP, or AHP5-GFP and incubated for 3 hours to allow sufficient expression.
as §1

[6] = tested on: AHP5-GFP; settings: 100 nM t-zeatin, 30 minutes
Procedure: as §2, §1

[7] = tested on: CKI1-GFP; experiment: GFP fusion expression and localization in transfected protoplasts (confocal microscopy); type: cell-based, Arabidopsis; settings: tunicamycin 1 μg/ml, 12 hours
Procedure: To gain insight into where the cytokinin signalling is perceived, the sub-cellular localization of CKI1 was examined using the CKI1-GFP fusion. We first confirmed that CKI1-GFP acted similarly as CKI1-HA in the protoplast assay based on ARR6-LUC activation (FIG. 1D). […] Specifically, protoplasts were transfected with CKI1-GFP or various GFP marker plasmid DNA. Tunicamycin (1 μg/ml) treatment was for 12 hours. The transfected protoplasts were analyzed with a confocal microscope. The subcellular GFP markers are “CAT-GFP” for the cytosol, “ER-GFP” for the endoplasmic reticulum, and “N-GFP” (HSP-GFP) for the nucleus. Since the N-terminus of CKI1 is replete with putative glycosylation sites, the effect of a glycosylation inhibitor, tunicamycin, in CKI1-GFP expression, localization or function was examined.

With `CC1=CC(=O)CC(C)(C)[C@@]1(O)/C=C/C(C)=C\C(=O)O` [ABA, abscisic acid] the “activity of ARR6-LUC (hormone specificity)” value (shortened to “activity of ARR6-LUC”) [1] was “not by other plant hormones” and the RD29A promoter induction [2] was “solely induced”.

`c1ccc(CNc2ncnc3nc[nH]c23)cc1` [BA, benzyladenine] was tested, and the “induction of the reporter gene ARR6-LUC by cytokinin analogues” value [1] was “induced”.

With `O=C(O)Cc1c[nH]c2ccccc12` [IAA, indole-3-acetic acid] the “activity of ARR6-LUC” value [1] was “not by other plant hormones”, the GH3 promoter activation [3] was “only activated” and the “callus / shoot formation of GFP control transformed seedlings” value [4] was “green callus formation”.

In the case of `C/C(=C\CNc1ncnc2nc[nH]c12)CO` [t-zeatin, trans-zeatin], the “activity of ARR6-LUC” value [1] is reported as “specifically induced”, the “induction of the reporter gene ARR6-LUC by cytokinin analogues” value [1] is reported as “induced” and the “AHP1-GFP localization after cytokinin treatment” value [5] is reported as “translocated into the nucleus”. For the same molecule, the AHP5-GFP cytokinin-dependent translocation [6] was “not”.

With tunicamycin the “expression of CKI1-GFP” value [7] was “completely abolished” and the “expression of other GFP constructs” value ([7]; CAT-GFP, ER-GFP, N-GFP markers) was “did not affect”.

B1: ARR1: Arabidopsis B-type response regulator (SEQ ID NO.: 2), over-expressed from effector plasmid (protein, listed as Arabidopsis thaliana)
chain: MALSLLRKNKHGFDIVISDVHMPDMDGFKLLEHVGLEMDLPVIMMSADDSKSVVLKGVTHGAVDYLIKPVRMEALKNIWQHVVRKRRSEWSVPEHSGSIEETGERQQQQHRGGGGGAAVSGGEDAVDDNSSSVNEGNNWRSSSRKRKDEEGEEQGDDKDEDASNLKKPRVVWSVELHQQFVAAVNQLGVEKAVPKKILELMNVPGLTRENVASHLQKYRIYLRRLGGVSQHQGNLNNSFMTGQDASFGPLSTLNGFDLQALAVTGQLPAQSLAQLQAAGLGRPAMVSKSGLPVSSIVDERSIFSFDNTKTRFGEGLGHHGQQPQQQPQMNLLHGVPTGLQQQLPMGNRMSIQQQIAAVRAGNSVQNNGMLMPLAGQQSLPRGPPPMLTSSQSSIRQPMLSNRISERSGFSGRNNIPESSRVLPTSYTNLTTQHSSSSMPYNNFQPELPVNSFPLASAPGISVPVRKATSYQEEVNSSEAGFTTPSYDMFTTRQNDWDLRNIGIAFDSHQDSESAAFSASEAYSSSSMSRHNTTVAATEHGRNHQQPPSGMVQHHQVYADGNGGSVRVKSERVATDTATMAFHEQYSNQEDLMSALLKQEGIAPVDGEFDFDAYSIDNIPV
For B1, the “activation of ARR6-LUC by over-expressed effector” value [1] was “about 40 fold”.

B2: ARR10: Arabidopsis B-type response regulator (SEQ ID NO.: 9), over-expressed from effector plasmid (protein, listed as Arabidopsis thaliana)
chain: MTMEQEIEVLDQFPVGMRVLAVDDDQTCLRILQTLLQRCQYHVTTTNQAQTALELLRENKNKFDLVISDVDMPDMDGFKLLELVGLEMDLPVIMLSAHSDPKYVMKGVKHGACDYLLKPVRIEELKNIWQHVVRKSKLKKNKSNVSNGSGNCDKANRKRKEQYEEEEEEERGNDNDDPTAQKKPRVLWTHELHNKFLAAVDHLGVERAVPKKILDLMNVDKLTRENVASHLQKFRVALKKVSDDAIQQANRAAIDSHFMQMNSQKGLGGFYHHHRGIPVGSGQFHGGTTMMRHYSSNRNLGRLNSLGAGMFQPVSSSFPRNHNDGGNILQGLPLEELQINNNINRAFPSFTSQQNSPMVAPSNLLLLEGNPQSSSLPSNPGFSPHFEISKRLEHWSNAALSTNIPQSDVHSKPDTLEWNAFCDSASPLVNPNLDTNPASLCRNTGFGSTNAAQTDFFYPLQMNQQPANNSGPVTEAQLFRSSNPNEGLLMGQQKLQSGLMASDAGSLDDIVNSLMTQEQSQSDFSEGDWDLDGLAHSEHAYEKLHFPFSLSA
With B2 the “activation of ARR6-LUC by over-expressed effector” value [1] was “about 10 fold” and the “further enhancement by cytokinin of effector's effect on ARR6-LUC activity” value ([1]; with cytokinin, relative to effector alone) was 10-20 fold.

B3: ARR2: Arabidopsis B-type response regulator (SEQ ID NO.: 3), over-expressed from effector plasmid (protein, listed as Arabidopsis thaliana)
chain: MVNPGHGRGPDSGTAAGGSNSDPFPANLRVLVVDDDPTCLMILERMLMTCLYREQRAHCLCFGRTKNGFDIVISDVHMPDMDGFKLLEHVGLEMDLPVINLNVLKPLVIVMSADDSKSVVLKGVTHGAVDYLIKPVRIEALKNIWQHVVRKKRNEWNVSEHSGGSIEDTGGDRDRQQQHREDADNNSSSVNEGNGRSSRKRKEEEVDDQGDDKEDSSSLKKPRVVWSVELHQQFVAAVNQLGVDSELKTCLLMHLCVSIGNIVEFQKYRIYLRRLGGVSQHQGNMNHSFMTGQDQSFGPLSSLNGFDLQSLAVTGQLPPQSLAQLQAAGLGRPTLAKPGMSVSPLVDQRSIFNFENPKIRFGDGHGQTMNNGNLLHGVPTGSHMRLRPGQNVQSSGMMLPVADQLPRGGPSMLPSLGQQPILSSSVSRRSDLTGALAVRNSIPETNSRVLPTTHSVFNNFPADLPRSSFPLASAPGISVPVSVSYQEEVNSSDAKGGSSAATAGFGNPSYDIFNDFPQHQQHNKNISNKLNDWDLRNMGLVFSSNQDAATATATAAFSTSEAYSSSSTQRKRRETDATVVGEHGQNLQSPSRNLYHLNHVFMDGGSVRVKSERVAETVTCPPANTLFHEQYNQEDLMSAFLKQV
In the case of B3, the “activation of ARR6-LUC by over-expressed effector” value [1] is reported as roughly 400 fold and the “activation of ARR6-LUC by over-expressed effector with cytokinin treatment” value ([1]; with cytokinin (100 nM t-zeatin, 3 hours)) is reported as “over 1000 fold”.
